Key:
Type in all cases: cell-based
[1] = tested on: MeWo; assay: In vitro combination study of Compound 205 with a second agent, melanoma cell proliferation (CellTiter Glo, Loewe synergy); details: combination with Compound 205; for Combinatorial effect (Loewe method) of second agent with Compound 205, MeWo: 7 days pre-treatment with Compound 205, then 7 days co-treatment, ATP content, Loewe volume >1 synergy, -1 to 1 additivity; as to Combinatorial effect (Loewe method) of second agent with Compound 205, MeWo: key: SYN Synergy; ADD Additivity
Procedure: (§1) On day 14 plates were developed for endpoint analysis using CellTiter Glo to measure ATP content, which was used as an indicator of cell viability. DMSO concentration was kept constant throughout the assay at 0.2% v/v.
(§2) All cells were maintained and cultured at 37° C., in a humidified atmosphere and 5% CO2.
(§3) Loewe volumes greater than 1 denoted synergy and volumes below −1 denoted antagonism. A value between −1 and 1 denoted additivity.

[2] = tested on: WM-266-4; assay: as above; details: combination with Compound 205; for Combinatorial effect (Loewe method) of second agent with Compound 205, WM-266-4: 7 days pre-treatment with Compound 205, then 7 days co-treatment, ATP content, Loewe volume >1 synergy, -1 to 1 additivity; as to Combinatorial effect (Loewe method) of second agent with Compound 205, WM-266-4: key: SYN Synergy; ADD Additivity
Procedure: as §1, §2, §3

[3] = tested on: CCRF-CEM; assay: In vitro long term proliferation (LTP), T-ALL cell line; details: Homo sapiens, 336 h, 14 day LTP, absolute IC50, seeding density 100000, read-out: Compound A75 IC50
Procedure: (§4) Exponentially growing T-cell lymphocytic leukemia (T-ALL) cells were plated, in triplicate, in 96-well plates at the appropriate cell density in a final volume of 150 μl. Cells were incubated in the presence of increasing concentrations of Compound A75. Viable cell number was determined at day 0, 4, 7, 11 and 14 days using Calcein staining and using an Accumen instrument to enumerate the number of cells. On days of cell counts, growth media and Compound A75 were replaced and cells split back to initial density. Total cell number is expressed as split-adjusted viable cells per well. For each cell line, absolute IC50 values (concentration of compound at which 50% inhibition occurs) were determined from concentration-dependence curves at 14 days using Graphpad Prism software.

[4] = tested on: Jurkat; assay: as above; details: Homo sapiens, 336 h, 14 day LTP, absolute IC50, seeding density 100000, read-out: Compound A75 IC50
Procedure: as §4

[5] = tested on: MOLT-16; assay: as above; details: Homo sapiens, 336 h, 14 day LTP, absolute IC50, seeding density 100000, read-out: Compound A75 IC50
Procedure: as §4

[6] = tested on: MOLT-4; assay: as above; details: Homo sapiens, 336 h, 14 day LTP, absolute IC50, seeding density 100000, read-out: Compound A75 IC50
Procedure: as §4

[7] = tested on: PEER; assay: as above; details: Homo sapiens, 336 h, 14 day LTP, absolute IC50, seeding density 250000, read-out: Compound A75 IC50
Procedure: as §4

[8] = tested on: SUP-T1; assay: as above; details: Homo sapiens, 336 h, 14 day LTP, absolute IC50, seeding density 200000, read-out: Compound A75 IC50
Procedure: as §4

[9] = tested on: TALL-1; assay: as above; details: Homo sapiens, 336 h, 14 day LTP, absolute IC50, seeding density 150000, read-out: Compound A75 IC50
Procedure: as §4

Cn1cnc2c(F)c(Nc3ccc(Br)cc3Cl)c(C(=O)NOCCO)cc21 [Selumetinib, selumetinib]
Combinatorial effect (Loewe method) of second agent with Compound 205, MeWo [1]: ADD
Combinatorial effect (Loewe method) of second agent with Compound 205, WM-266-4 [2]: ADD

CC(=O)Nc1cccc(-n2c(=O)n(C3CC3)c(=O)c3c(Nc4ccc(I)cc4F)n(C)c(=O)c(C)c32)c1 [Trametinib]
Combinatorial effect (Loewe method) of second agent with Compound 205, MeWo [1]: ADD
Combinatorial effect (Loewe method) of second agent with Compound 205, WM-266-4 [2]: ADD

Nc1cc(C(F)(F)F)c(-c2cc(N3CCOCC3)nc(N3CCOCC3)n2)cn1 [BKM120, 5-(2,6-dimorpholin-4-ylpyrimidin-4-yl)-4-(trifluoromethyl)pyridin-2-amine]
Combinatorial effect (Loewe method) of second agent with Compound 205, MeWo [1]: SYN
Combinatorial effect (Loewe method) of second agent with Compound 205, WM-266-4 [2]: SYN

CC(=O)c1c(C)c2cnc(Nc3ccc(N4CCNCC4)cn3)nc2n(C2CCCC2)c1=O [Palbociclib, palbociclib]
Combinatorial effect (Loewe method) of second agent with Compound 205, MeWo [1]: SYN
Combinatorial effect (Loewe method) of second agent with Compound 205, WM-266-4 [2]: SYN

NC1(c2ccc(-c3nc4ccn5c(=O)[nH]nc5c4cc3-c3ccccc3)cc2)CCC1 [MK-2206]
Combinatorial effect (Loewe method) of second agent with Compound 205, MeWo [1]: SYN
Combinatorial effect (Loewe method) of second agent with Compound 205, WM-266-4 [2]: SYN

CNC1=Nc2cc(C#CCN3CCCCC3)c(OC)cc2C12CCC2 [Compound A75]
IC50 [3]: 1000 to 5000 nM
IC50 [4]: 1000 to 5000 nM
IC50 [5]: 100 to 1000 nM
IC50 [6]: 100 to 1000 nM
IC50 [7]: < 100 nM
IC50 [8]: 5000 to 15000 nM
IC50 [9]: 5000 to 15000 nM

CNC(=O)c1cc(Oc2ccc(NC(=O)Nc3ccc(Cl)c(C(F)(F)F)c3)cc2)ccn1 [Sorafenib]
Combinatorial effect (Loewe method) of second agent with Compound 205, MeWo [1]: ADD
Combinatorial effect (Loewe method) of second agent with Compound 205, WM-266-4 [2]: SYN

CS(=O)(=O)N1CCN(Cc2cc3nc(-c4cccc5[nH]ncc45)nc(N4CCOCC4)c3s2)CC1 [Pictilisib, 4-[2-(1H-indazol-4-yl)-6-[(4-methylsulfonylpiperazin-1-yl)methyl]thieno[3,2-d]pyrimidin-4-yl]morpholine]
Combinatorial effect (Loewe method) of second agent with Compound 205, MeWo [1]: SYN
Combinatorial effect (Loewe method) of second agent with Compound 205, WM-266-4 [2]: SYN

CO[C@H]1C[C@@H]2CC[C@@H](C)[C@@](O)(O2)C(=O)C(=O)N2CCCC[C@H]2C(=O)O[C@H]([C@H](C)C[C@@H]2CC[C@@H](OCCO)[C@H](OC)C2)CC(=O)[C@H](C)/C=C(\C)[C@@H](O)[C@@H](OC)C(=O)[C@H](C)C[C@H](C)/C=C/C=C/C=C/1C [Everolimus, everolimus]
Combination effect of Compound 205 and Everolimus (figure legend) ([1]; MeWo melanoma cell line, FIG. 6): synergy
Combinatorial effect (Loewe method) of second agent with Compound 205, MeWo [1]: SYN
Combinatorial effect (Loewe method) of second agent with Compound 205, WM-266-4 [2]: SYN
Combination effect of Compound 205 and Everolimus (figure legend) ([2]; WM-266-4 melanoma cell line, FIG. 6): synergy

CC(C)Nc1cc(-c2c[nH]c(C(=O)N[C@H](CO)c3cccc(Cl)c3)c2)c(Cl)cn1 [BVD-523, N-[(1S)-1-(3-chlorophenyl)-2-hydroxyethyl]-4-[5-chloro-2-(propan-2-ylamino)-pyridin-4-yl]-1H-pyrrole-2-carboxamide]
Combinatorial effect (Loewe method) of second agent with Compound 205, MeWo [1]: ADD
Combinatorial effect (Loewe method) of second agent with Compound 205, WM-266-4 [2]: ADD

CC(C)NC[C@@H](C(=O)N1CCN(c2ncnc3c2[C@H](C)C[C@H]3O)CC1)c1ccc(Cl)cc1 [GDC-0068, (2S)-2-(4-chlorophenyl)-1-[4-[(5R,7R)-7-hydroxy-5-methyl-6,7-dihydro-5H-cyclopenta[d]pyrimidin-4-yl]piperazin-1-yl]-3-(propan-2-ylamino)propan-1-one]
Combinatorial effect (Loewe method) of second agent with Compound 205, MeWo [1]: ADD
Combinatorial effect (Loewe method) of second agent with Compound 205, WM-266-4 [2]: SYN

From patent publication US11672800B2, “Combination therapies with EHMT2 inhibitors” (Epizyme, Inc., priority 2017, dated 2023)
